This note sets out measurements from patent US8653087B2, “Pyrido [5, 4-D] pyrimidines as cell proliferation inhibitors” (Boehringer Ingelheim International GmbH, priority 2008, dated 2014).

The structures appear in SMILES notation. Where only a bound is given, the exact number is not on record here.

B-Raf (V600E)-kinase, sequence (P15056 whole entry V600E): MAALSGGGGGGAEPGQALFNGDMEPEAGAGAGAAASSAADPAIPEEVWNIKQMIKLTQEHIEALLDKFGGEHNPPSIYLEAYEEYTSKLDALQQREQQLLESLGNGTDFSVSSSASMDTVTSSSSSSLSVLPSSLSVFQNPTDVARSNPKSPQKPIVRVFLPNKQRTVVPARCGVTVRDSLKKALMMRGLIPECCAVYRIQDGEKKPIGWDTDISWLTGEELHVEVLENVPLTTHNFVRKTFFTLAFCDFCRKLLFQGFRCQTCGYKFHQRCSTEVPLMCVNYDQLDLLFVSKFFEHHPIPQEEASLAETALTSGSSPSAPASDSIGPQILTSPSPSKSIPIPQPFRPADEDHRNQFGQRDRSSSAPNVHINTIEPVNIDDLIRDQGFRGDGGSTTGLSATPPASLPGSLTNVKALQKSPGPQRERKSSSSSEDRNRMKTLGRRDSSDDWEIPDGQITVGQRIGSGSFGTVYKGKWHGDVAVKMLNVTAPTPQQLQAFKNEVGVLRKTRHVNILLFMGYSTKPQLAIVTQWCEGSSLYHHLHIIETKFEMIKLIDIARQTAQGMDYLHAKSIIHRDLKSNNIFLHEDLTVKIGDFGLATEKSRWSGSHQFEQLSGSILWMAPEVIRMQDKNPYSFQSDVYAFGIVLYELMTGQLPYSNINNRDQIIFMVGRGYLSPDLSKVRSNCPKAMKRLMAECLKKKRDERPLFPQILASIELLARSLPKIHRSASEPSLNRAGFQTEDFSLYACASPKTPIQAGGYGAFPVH

This experiment addresses B-Raf (V600E)-kinase (Homo sapiens (Human), UniProt P15056, V600E). As to the kind of experiment: Kinase test B-RAF (V600E). It counts as biochemical. The following applies: B-RAF (V600E) kinase test, 250 μM ATP. How it is done:
Kinase Test B-RAF (V600E)
In a dilution series 10 μL of test substance solution are placed in a multiwell plate. The dilution series is selected so that generally a range of concentrations of 2 μM to 0.119 nM or 0.017 nM is covered. If necessary the initial concentration of 2 μM is changed to 50 μM, 10 μM or 0.4 μM or 0.2857 μM and further dilution is carried out accordingly. The final concentration of DMSO is 5%. 10 μL of the B-Raf (V600E)-kinase solution are pipetted in (containing 0.5 ng B-Raf (V600E)-kinase in 20 mM Tris-HCl pH 7.5, 0.1 mM EDTA, 0.1 mM EGTA, 0.286 mM sodium orthovanadate, 10% glycerol, 1 mg/mL bovine serum albumin, 1 mM dithiothreitol) and the mixture is incubated for 24 h at RT under with shaking. The kinase reaction is started by the addition of 20 μL ATP solution [final concentration: 250 μM ATP, 30 mM Tris-HCl pH 7.5, 0.02% Brij, 0.2 mM sodium orthovanadate, 10 mM magnesium acetate, 0.1 mM EGTA, phosphatase cocktail (Sigma, # P2850, dilution recommended by the manufacturer), 0.1 mM EGTA] and 10 μL MEK1 solution [containing 50 ng biotinylated MEK1 (prepared from purified MEK1 according to standard procedure, e.g. with EZ-Link Sulpho-NHS-LC-Biotin reagent, Pierce, #21335) and carried out for 60 min at RT with constant shaking. The reaction is stopped by the addition of 12 μL of a 100 mM EDTA solution and incubation is continued for a further 5 min. 55 μL of the reaction solution are transferred into a streptavidin-coated plate (e.g. Streptawell HighBond, Roche, #11989685001) and shaken gently for 1 h at RT, in order to bind biotinylated MEK1 to the plate. After elimination of the liquid the plate is washed five times with 200 μL of 1×PBS and 100 μL solution of primary antibody plus europium-labelled secondary antibody [Anti Phospho-MEK (Ser217/221), Cell Signaling, #9121 and Eu-N1 labeled goat-anti-rabbit antibody, Perkin Elmer, # AD0105], the primary antibody is diluted 1:2000 and the secondary antibody is diluted to 0.4-0.5 μg/mL in Delfia Assay Buffer (Perkin Elmer, #1244-111). After 1 h shaking at RT the solution is poured away and washed five times with 200 μL Delfia Wash Buffer (Perkin Elmer, #4010-0010/#1244-114). After the addition of 200 μL Enhancement Solution (Perkin Elmer, #4001-0010/#1244-105) the mixture is shaken for 10 min at RT and then measured in a Wallac Victor using the program “Delfia Time Resolved Fluorescence (Europium)”. IC50 values are obtained from these dosage-activity curves using a software program (GraphPadPrizm).
In the case of `Cc1ccc(C(=O)Nc2cccc(C(F)(F)F)c2)cc1Nc1ncnc2c(N)nc(N3CCN(C4CCN(C)CC4)CC3)nc12` [I-56], the half-maximal inhibitory concentration (IC50) (in general, the concentration at which inhibition is half-maximal) was under 1 nM.
`Cc1ccc(C(=O)Nc2cccc(C(F)(F)F)c2)cc1Nc1ncnc2c(N)nc(N3CCN(C4CCCC4)CC3)nc12` [I-57] showed an IC50 of under 1 nM.
On to `Cc1ccc(C(=O)Nc2cccc(C(F)(F)F)c2)cc1Nc1ncnc2c(N)nc(N3CCCN(C4CC4)CC3)nc12` [I-58], for which 1 nM corresponded to half-maximal inhibition (IC50).
Under `Cc1ccc(C(=O)Nc2cccc(C(F)(F)F)c2)cc1Nc1ncnc2c(N)nc(N3CCCNCC3)nc12` [I-59] stands 1 nM; under `Cc1ccc(C(=O)Nc2cccc(C(F)(F)F)c2)cc1Nc1ncnc2c(N)nc(N3CCCN(c4ccncc4)CC3)nc12` [I-60], under 1 nM.
Next, `Cc1ccc(C(=O)Nc2cccc(C(F)(F)F)c2)cc1Nc1ncnc2c(N)nc(N3CCN(CC4CCN(C)CC4)CC3)nc12` [I-61]: under 1 nM; `Cc1ccc(C(=O)Nc2cccc(C(F)(F)F)c2)cc1Nc1ncnc2c(N)nc(N3CC(C)NC(C)C3)nc12` (centres unmarked) [I-62]: 2 nM; `Cc1ccc(C(=O)Nc2cccc(C(F)(F)F)c2)cc1Nc1ncnc2c(N)nc(N3CCCN(c4ncccn4)CC3)nc12` [I-63]: 1 nM.
Under `Cc1ccc(C(=O)Nc2cccc(C(F)(F)F)c2)cc1Nc1ncnc2c(N)nc(N3CCN(C(C)C)CC3)nc12` [I-64] stands under 1 nM; under `Cc1ccc(C(=O)Nc2cccc(C(F)(F)F)c2)cc1Nc1ncnc2c(N)nc(N3C[C@H]4C[C@@H]3CN4C)nc12` [I-65], under 1 nM; under `Cc1ccc(C(=O)Nc2cccc(C(F)(F)F)c2)cc1Nc1ncnc2c(N)nc(N3CCNCC3)nc12` [I-66], under 1 nM.
As for `Cc1ccc(C(=O)Nc2cccc(C(F)(F)F)c2)cc1Nc1ncnc2c(N)nc(N3CCCN(c4ccccn4)CC3)nc12` [I-67], it took 3 nM to reach half-maximal inhibition (IC50).
On to `Cc1ccc(C(=O)Nc2cccc(C(F)(F)F)c2)cc1Nc1ncnc2c(N)nc(N3CCCN(C)CC3)nc12` [I-68], for which the IC50 is under 1 nM.
Compound `Cc1ccc(C(=O)Nc2cc(C(C)(C)C)n[nH]2)cc1Nc1ncnc2c(N)nc(N3C[C@@H]4C[C@H]3CN4)nc12` [I-69] yielded an IC50 of 2 nM.
Under `Cc1ccc(C(=O)Nc2cc(N(C)CCN(C)C)cc(C(F)(F)F)c2)cc1Nc1ncnc2c(N)nc(N3CCCOCC3)nc12` [I-70] stands 3 nM; under `Cc1ccc(C(=O)Nc2ccc(C#N)c(C(F)(F)F)c2)cc1Nc1ncnc2c(N)nc(N3CCN(C)CC3)nc12` [I-71], 7 nM; under `Cc1ccc(C(=O)Nc2cc(C(C)(C)C)nn2C)cc1Nc1ncnc2c(N)nc(N3CCN(C)CC3)nc12` [I-72], 12 nM.
Under `Cc1ccc(C(=O)Nc2cc(C(F)(F)F)ccn2)cc1Nc1ncnc2c(N)nc(N3CCN(C)CC3)nc12` [I-73] stands 2 nM; under `Cc1ccc(C(=O)Nc2ccc(Cl)c(C(F)(F)F)c2)cc1Nc1ncnc2c(N)nc(N3CCN(C)CC3)nc12` [I-74], 3 nM; under `Cc1cn(-c2cc(NC(=O)c3ccc(C)c(Nc4ncnc5c(N)nc(N6CCN(C)CC6)nc45)c3)cc(C(F)(F)F)c2)cn1` [I-75], 54 nM.
Under `Cc1ccc(C(=O)Nc2cc(N(C)CCN(C)C)cc(C(F)(F)F)c2)cc1Nc1ncnc2c(N)nc(N3CCOCC3)nc12` [I-76] stands 1 nM; under `CCN1CCN(c2cc(NC(=O)c3ccc(C)c(Nc4ncnc5c(N)nc(N6CCOCC6)nc45)c3)cc(C(F)(F)F)c2)CC1` [I-77], 2 nM; under `Cc1ccc(C(=O)Nc2cc(N(C)CCN(C)C)cc(C(F)(F)F)c2)cc1Nc1ncnc2c(N)nc(N(C)C)nc12` [I-78], 8 nM.
Turning to `CCN1CCN(c2cc(NC(=O)c3ccc(C)c(Nc4ncnc5c(N)nc(N(C)C)nc45)c3)cc(C(F)(F)F)c2)CC1` [I-79], the IC50 turned out to be 19 nM.
Consider `Cc1ccc(C(=O)Nc2cccc(C(C)(C)C)c2)cc1Nc1ncnc2c(N)nc(N3CCN(C)CC3)nc12` [I-80], for which half-maximal inhibition (IC50) was put at 2 nM.
The compound `CCN1CCN(c2cc(NC(=O)c3ccc(C)c(Nc4ncnc5c(N)nc(N6CCCOCC6)nc45)c3)cc(C(F)(F)F)c2)CC1` [I-81] displayed a half-inhibitory concentration (IC50) of 3 nM.
Under `CN1CCN(c2nc(N)c3ncnc(Nc4ccc(F)c(C(=O)Nc5cc(C(C)(C)C)n[nH]5)c4)c3n2)CC1` [I-82] stands 676 nM; under `CC(C)CN1CCN(c2nc(N)c3ncnc(Nc4ccc(F)c(C(=O)Nc5cc(C(C)(C)C)n[nH]5)c4)c3n2)CC1` [I-83], 2200 nM.
On to `Cc1ccc(C(=O)Nc2cc(C(C)(C)C)nn2C)cc1Nc1ncnc2c(N)nc(N3CCN(CC(C)C)CC3)nc12` [I-84], for which the 50% inhibitory concentration (IC50) came to 11 nM.
In turn, `Cc1ccc(C(=O)Nc2cc(C(C)(C)C)nn2C)cc1Nc1ncnc2c(N)nc(N3CCN4CCCC4C3)nc12` (centres unmarked) [I-85] showed a 50% inhibitory concentration (IC50) of 7 nM.
Under `Cc1ccc(C(=O)Nc2cc(N(C)CCN(C)C)cc(C(F)(F)F)c2)cc1Nc1ncnc2c(N)nc(N3CC[C@H](F)C3)nc12` [I-86] stands 4 nM; under `CCN1CCN(c2cc(NC(=O)c3ccc(C)c(Nc4ncnc5c(N)nc(N6CCCC6)nc45)c3)cc(C(F)(F)F)c2)CC1` [I-87], 9 nM; under `CCN1CCN(c2cc(NC(=O)c3ccc(C)c(Nc4ncnc5c(N)nc(N6CC[C@H](F)C6)nc45)c3)cc(C(F)(F)F)c2)CC1` [I-88], 10 nM.
Under `Cc1ccc(NC(=O)c2cccc(C(F)(F)F)c2)cc1Nc1ncnc2c(N)nc(N3CCN(C)CC3)nc12` [II-1] stands 26 nM; under `Cc1ccc(NC(=O)c2cccc(C(F)(F)F)c2)cc1Nc1ncnc2c(N)nc(N3CCCN(C)CC3)nc12` [II-2], 41 nM; under `Cc1ccc(NC(=O)c2cccc(C(F)(F)F)c2)cc1Nc1ncnc2c(N)nc(NN3CCN(C)CC3)nc12` [II-3], 50 nM.
Under `Cc1ccc(NC(=O)c2cccc(C(F)(F)F)c2)cc1Nc1ncnc2c(N)nc(NCc3ccncc3)nc12` [II-4] stands 81 nM; under `Cc1ccc(NC(=O)c2cccc(C(F)(F)F)c2)cc1Nc1ncnc2c(N)nc(NCc3cccnc3)nc12` [II-5], 50 nM.
In turn, `Cc1ccc(NC(=O)c2cccc(C(F)(F)F)c2)cc1Nc1ncnc2c(N)nc(NCc3ccccn3)nc12` [II-6] showed an IC50 of 96 nM.
Under `Cc1ccc(NC(=O)c2cccc(C(F)(F)F)c2)cc1Nc1ncnc2c(N)nc(N(C)C)nc12` [II-7] stands 15 nM.
With `Cc1ccc(NC(=O)c2cccc(C(F)(F)F)c2)cc1Nc1ncnc2c(N)nc(N3CCN(C4CCN(C)CC4)CC3)nc12` [II-8], inhibition was half-maximal at 2 nM (IC50).
Next, `Cc1ccc(NC(=O)c2cccc(C(F)(F)F)c2)cc1Nc1ncnc2c(N)nc(N3CCN(C4CCCC4)CC3)nc12` [II-9]: 24 nM.
Under `Cc1ccc(NC(=O)c2cccc(C(F)(F)F)c2)cc1Nc1ncnc2c(N)nc(N3CCCN(C4CC4)CC3)nc12` [II-10] stands 25 nM; under `Cc1ccc(NC(=O)c2cccc(C(F)(F)F)c2)cc1Nc1ncnc2c(N)nc(N3CCCNCC3)nc12` [II-11], 20 nM.
Consider `Cc1ccc(NC(=O)c2cccc(C(F)(F)F)c2)cc1Nc1ncnc2c(N)nc(N3CCCN(c4ccncc4)CC3)nc12` [II-12], for which the IC50 came to 7 nM.
Next, `Cc1ccc(NC(=O)c2cccc(C(F)(F)F)c2)cc1Nc1ncnc2c(N)nc(N3C[C@H](C)NC[C@H]3C)nc12` [II-13]: 7 nM; `Cc1ccc(NC(=O)c2cccc(C(F)(F)F)c2)cc1Nc1ncnc2c(N)nc(N3CCN(CC4CCN(C)CC4)CC3)nc12` [II-14]: 4 nM.
